# Legend:
# ATM enzyme (human) = ATM enzyme (human) (Homo sapiens, UniProt Q13315); assay: ATM kinase assay (HTRF, phosphorylation of GST-cMyc-p53); type: biochemical; conditions: for inhibition(%) of ATM kinase / inhibition at 1 µM: detected concentration 1 μm
# Experimental: ATM enzyme (human) was added to the reaction solution containing 30 nM GST-cMyc-p53 and 10 μM Mg/ATP, and then 50 times the concentration of the tested compound (or reference compound AZD0156) dissolved in 100% DMSO was added to the final concentration of 10 μM/1 μM/0.1 μM/0.01 μM. The reaction was initiated by the addition of a Mg/ATP mixture and incubation for 30 minutes at room temperature, the reaction was quenched by the addition of a stop solution containing EDTA. Finally, the detection buffer containing the d2-labeled anti-GST monoclonal antibody and the europium-labeled anti-phospho p53 (Ser15) antibody was added. The plate was then read in time resolved fluorescence mode and the homogeneous time resolved fluorescence (HTRF) signal was determined according to the equation: HTRF=10000×(Em665nm/Em620nm). Each compound sample was repeated in duplicate. The negative control contained all components except the ATM enzyme, and the positive control contained all components. All reactions were quenched by adding EDTA.
# The compounds were serially diluted to 10 concentrations with 100% DMSO at the ratio of 1:3 and 1:10 (the last concentration was negative control of DMSO), then added to the ATM buffer and diluted to a final concentration of 10, 3, 1, 0.3, 0.1, 0.03, 0.01, 0.003, 0.001 and 0 μM, respectively. ATM kinase inhibition was detected by using the method described above. The curve equation for calculating IC50 value is as follows: […]
# wherein, C is the concentration of compound and D is the slope factor. Table 2 summarizes the IC50 values of compounds inhibiting ATM kinase.
# [1] = tested on: human colon cancer cell SW620; assay: MTT assay, growth of SW620 cells, compounds combined with CPT-11; type: cell-based; conditions: 205 nM CPT-11, 5 days, MTT
# Experimental: (§1) SW620 cells were digested by trypsinase, centrifuged at 800 rpm for 5 minutes, the supernatant was discarded, resuspended with fresh medium (RPMI 1640 medium+10% FBS) and counted. The cells were seeded into 96-well cell culture plate with appropriate cell density and incubated overnight in a 37° C. 5% CO2 incubator. The stock solutions of the tested compound and the reference compound AZD0156 were serially diluted to 8 concentrations by DMSO at the ratios of 1:3 and 1:10, respectively, and the last concentration was negative control of DMSO (0 μM, the final concentration of DMSO was 1%). 5 μL of each concentration was added to 120 μL of medium (25 times diluted) and mixed by shaking. The overnight cells were taken and the culture medium was removed, 195 μL of fresh medium containing 205 nM CPT-11 was added to each well, and 5 μL of diluted medium containing the corresponding concentration of the tested sample was added respectively, and the culture plate was then placed in the 5% CO2 cell culture incubator at 37° C. for 5 days. After removing the original solution, 100 μL of fresh serum-free DMEM medium containing MTT (0.5 mg/mL) was added to each well, the culture was continued. After 4 hours, the original solution was removed, 100 μL of DMSO was added into each well, the 96-well plates were shaken away from light for 10 minutes and placed in a multi-function reader to read the absorbance at the wavelength of 552/630/690 nm. GraphPad Prism 6.0 was used to analyze the data. The inhibitory activity of compounds on cell proliferation was plotted based on cell viability and compound concentration. The IC50 value was fitted by a sigmoidal dose response curve equation Y=100/(1+10^(Log C−Log IC50)), where C was the concentration of compound.
# [2] = tested on: human breast cancer cell MDA-MB-468; assay: MTT assay, growth of MDA-MB-468 cells; type: cell-based; conditions: single agent, 7 days, MTT
# Experimental: as §1, with “MDA-MB-468 cells” for “SW620 cells”, “1:10, respectively:” for “1:10, respectively, and”, “medium (PRMI 1640+5% FBS)” for “medium containing 205 nM CPT-11”, “for 7 days (On the fourth day, the medium containing drugs was removed and fresh medium containing drugs was added for continuous cultivation).” for “for 5 days.”
# [3] = Homo sapiens, MDA-MB-468, 168 h
# Sequence of ATM enzyme (human) (Q13315 whole entry): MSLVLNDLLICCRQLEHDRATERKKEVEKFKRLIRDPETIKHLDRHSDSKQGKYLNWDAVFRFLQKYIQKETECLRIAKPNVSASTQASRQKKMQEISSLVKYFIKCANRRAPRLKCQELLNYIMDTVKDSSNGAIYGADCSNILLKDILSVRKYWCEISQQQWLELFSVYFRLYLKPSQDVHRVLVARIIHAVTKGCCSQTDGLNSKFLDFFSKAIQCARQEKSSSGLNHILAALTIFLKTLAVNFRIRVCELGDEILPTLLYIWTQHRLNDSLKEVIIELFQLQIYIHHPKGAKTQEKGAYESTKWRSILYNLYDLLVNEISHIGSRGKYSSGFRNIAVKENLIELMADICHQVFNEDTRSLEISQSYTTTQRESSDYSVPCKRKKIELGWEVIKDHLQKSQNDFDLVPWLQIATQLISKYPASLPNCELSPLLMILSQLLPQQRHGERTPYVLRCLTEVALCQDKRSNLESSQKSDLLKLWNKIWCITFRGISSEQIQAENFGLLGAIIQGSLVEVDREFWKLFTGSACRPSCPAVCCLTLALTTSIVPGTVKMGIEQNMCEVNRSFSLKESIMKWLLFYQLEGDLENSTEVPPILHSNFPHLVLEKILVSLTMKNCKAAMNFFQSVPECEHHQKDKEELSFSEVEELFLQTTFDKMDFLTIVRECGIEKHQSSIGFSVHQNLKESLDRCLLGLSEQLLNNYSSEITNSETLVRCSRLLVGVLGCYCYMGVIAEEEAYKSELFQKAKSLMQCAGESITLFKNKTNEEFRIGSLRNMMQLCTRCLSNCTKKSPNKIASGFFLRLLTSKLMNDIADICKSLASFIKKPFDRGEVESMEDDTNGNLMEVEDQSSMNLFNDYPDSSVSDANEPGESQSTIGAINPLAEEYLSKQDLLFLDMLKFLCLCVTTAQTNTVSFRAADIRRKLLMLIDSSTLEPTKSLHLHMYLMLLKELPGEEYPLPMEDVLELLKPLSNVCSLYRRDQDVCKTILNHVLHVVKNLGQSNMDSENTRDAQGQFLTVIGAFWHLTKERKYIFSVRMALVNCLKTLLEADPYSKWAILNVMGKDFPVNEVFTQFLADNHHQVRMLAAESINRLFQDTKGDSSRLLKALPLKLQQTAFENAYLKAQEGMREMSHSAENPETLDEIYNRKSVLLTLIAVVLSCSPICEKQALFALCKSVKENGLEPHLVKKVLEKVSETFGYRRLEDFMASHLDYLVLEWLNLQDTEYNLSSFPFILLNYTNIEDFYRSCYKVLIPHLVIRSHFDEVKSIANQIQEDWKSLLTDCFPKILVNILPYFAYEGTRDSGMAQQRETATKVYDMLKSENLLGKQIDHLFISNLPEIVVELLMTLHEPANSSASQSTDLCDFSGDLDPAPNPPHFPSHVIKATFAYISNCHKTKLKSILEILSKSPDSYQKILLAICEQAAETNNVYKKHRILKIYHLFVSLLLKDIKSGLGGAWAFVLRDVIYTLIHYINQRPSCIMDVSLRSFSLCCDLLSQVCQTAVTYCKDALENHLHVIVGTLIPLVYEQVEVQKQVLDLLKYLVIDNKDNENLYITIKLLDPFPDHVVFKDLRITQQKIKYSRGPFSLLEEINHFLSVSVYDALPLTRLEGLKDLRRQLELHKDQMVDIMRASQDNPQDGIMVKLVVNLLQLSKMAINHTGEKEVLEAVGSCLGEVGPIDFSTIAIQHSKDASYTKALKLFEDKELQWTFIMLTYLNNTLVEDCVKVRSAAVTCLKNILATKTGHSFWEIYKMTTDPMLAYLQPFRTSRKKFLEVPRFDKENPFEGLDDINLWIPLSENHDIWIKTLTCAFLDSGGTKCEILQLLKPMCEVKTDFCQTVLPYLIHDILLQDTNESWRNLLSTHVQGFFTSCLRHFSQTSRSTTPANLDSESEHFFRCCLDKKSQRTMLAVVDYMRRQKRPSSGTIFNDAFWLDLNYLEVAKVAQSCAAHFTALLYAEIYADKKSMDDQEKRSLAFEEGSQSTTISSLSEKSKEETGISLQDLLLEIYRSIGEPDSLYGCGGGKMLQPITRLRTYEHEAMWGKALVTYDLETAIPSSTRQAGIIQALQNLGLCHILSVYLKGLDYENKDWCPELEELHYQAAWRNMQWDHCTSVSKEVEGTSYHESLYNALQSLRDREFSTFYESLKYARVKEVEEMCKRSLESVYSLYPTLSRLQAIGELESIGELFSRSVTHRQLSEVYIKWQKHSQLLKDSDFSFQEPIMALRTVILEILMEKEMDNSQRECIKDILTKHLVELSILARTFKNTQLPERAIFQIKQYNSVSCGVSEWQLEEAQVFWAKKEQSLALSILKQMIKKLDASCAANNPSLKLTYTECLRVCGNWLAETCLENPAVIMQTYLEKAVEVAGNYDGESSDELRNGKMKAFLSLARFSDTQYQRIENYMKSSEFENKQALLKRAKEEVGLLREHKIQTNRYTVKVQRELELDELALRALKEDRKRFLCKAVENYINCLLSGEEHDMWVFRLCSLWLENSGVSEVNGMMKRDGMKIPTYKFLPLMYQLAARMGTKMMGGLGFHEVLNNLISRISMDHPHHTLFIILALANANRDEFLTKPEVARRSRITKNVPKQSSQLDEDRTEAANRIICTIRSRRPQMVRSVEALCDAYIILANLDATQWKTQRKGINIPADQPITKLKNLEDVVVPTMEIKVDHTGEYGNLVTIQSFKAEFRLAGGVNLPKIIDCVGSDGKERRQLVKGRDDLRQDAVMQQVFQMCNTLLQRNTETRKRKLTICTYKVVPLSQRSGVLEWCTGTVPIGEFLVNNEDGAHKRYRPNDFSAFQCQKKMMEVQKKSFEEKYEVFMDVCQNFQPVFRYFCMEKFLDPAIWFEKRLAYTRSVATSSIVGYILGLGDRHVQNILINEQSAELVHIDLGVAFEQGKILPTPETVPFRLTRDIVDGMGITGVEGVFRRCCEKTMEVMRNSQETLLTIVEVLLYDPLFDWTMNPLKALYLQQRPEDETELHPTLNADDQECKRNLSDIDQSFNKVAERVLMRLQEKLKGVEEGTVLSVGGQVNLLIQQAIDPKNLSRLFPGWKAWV
compound,measurement,setting,value
"CN(C)CCCOc1ccc(-c2ccc3ncc4c(c3c2)n(C2CCOCC2)c(=O)n4C)cn1 [AZD0156, reference compound]",inhibition(%) of ATM kinase,ATM enzyme (human),100%
same,IC50,[1],8.5 nM
same,IC50,[2],10.6 nM
"CN(C)CCCOc1ccc(-c2ccc3nc4cccc(C5=CCOCC5)c4n3c2)cn1 [Example 1, N,N-dimethyl-3-((5-(9-(3,6-dihydro-2H-pyran-4-yl)benzo[4,5]imidazo[1,2-a]pyridin-2-yl)pyridin-2-yl)oxy)propan-1-amine]",IC50,"ATM enzyme (human); 10 concentrations, 10 to 0.001 μM, read-out: IC50 (nM), in vitro inhibitory effect on ATM kinase",239 nM
same,inhibition at 10 µM,"ATM enzyme (human); 0.5 h, detected concentration 10 μm",100%
same,effect on ATM kinase (in words),ATM enzyme (human); ATM kinase (human) assay,good effect
same,IC50,"[1]; Homo sapiens, SW-620, 120 h",1340 nM
same,IC50,[2]; [3],2800 nM
"CN(C)CCCOc1ccc(-c2ccc3nc4cccc(C5=CCOCC5)c4n3c2)cc1 [Example 2, N,N-dimethyl-3-(4-(9-(3,6-dihydro-2H-pyran-4-yl)benzo[4,5]imidazo[1,2-a]pyridin-2-yl)phenoxy)propan-1-amine]",inhibition at 1 µM,ATM enzyme (human); 0.5 h,81%
same,IC50,"[1]; Homo sapiens, SW-620, 120 h",1660 nM
"CN(C)CCCOc1ccc(-c2ccc3nc4cccc(N5CCN(C)CC5)c4n3c2)cc1 [Example 3, N,N-dimethyl-3-(4-(9-(4-methylpiperazin-1-yl)benzo[4,5]imidazo[1,2-a]pyridin-2-yl)phenoxy)propan-1-amine]",IC50,"[1]; Homo sapiens, SW-620, 120 h",563 nM
same,IC50,[2]; [3],330 nM
"CN(C)CCCOc1ccc(-c2ccc3nc4cccc(N5CCOCC5)c4n3c2)cc1 [Example 4, N,N-dimethyl-3-(4-(9-morpholinobenzo[4,5]imidazo[1,2-a]pyridin-2-yl)phenoxy)propan-1-amine]",inhibition at 1 µM,ATM enzyme (human); 0.5 h,74%
same,IC50,"[1]; Homo sapiens, SW-620, 120 h",5480 nM
"CN(C)CCCOc1ccc(-c2ccc3nc4cccc(N5CCCCC5)c4n3c2)cn1 [Example 5, N,N-dimethyl-3-((5-(9-(piperidin-1-yl)benzo[4,5]imidazo[1,2-a]pyridin-2-yl)pyridin-2-yl)oxy)propan-1-amine]",inhibition at 1 µM,ATM enzyme (human); 0.5 h,61%
same,IC50,"[1]; Homo sapiens, SW-620, 120 h",> 10000 nM
"CN(C)CCCOc1ccc(-c2ccc3nc4cccc(N5CCOCC5)c4n3c2)cn1 [Example 6, N,N-dimethyl-3-((5-(9-morpholinobenzo[4,5]imidazo[1,2-a]pyridin-2-yl)pyridin-2-yl)oxy)propan-1-amine]",inhibition at 1 µM,ATM enzyme (human); 0.5 h,77%
same,IC50,"[1]; Homo sapiens, SW-620, 120 h",2470 nM
"CN(C)CCCOc1ccc(-c2ccc3nc4cccc(N5CCN(C)CC5)c4n3c2)cn1 [Example 7, N,N-dimethyl-3-((5-(9-(4-methylpiperazin-1-yl)benzo[4,5]imidazo[1,2-a]pyridin-2-yl)pyridin-2-yl)oxy)propan-1-amine]",inhibition at 1 µM,ATM enzyme (human); 0.5 h,64%
same,IC50,"[1]; Homo sapiens, SW-620, 120 h",> 10000 nM
"C[C@@H]1CN(c2cccc3nc4ccc(-c5ccc(OCCCN(C)C)nc5)cn4c23)C[C@H](C)N1C [Example 8, N,N-dimethyl-3-((5-(9-((3S,5R)-3,4,5-trimethylpiperazin-1-yl)benzo[4,5]imidazo[1,2-a]pyridin-2-yl)pyridin-2-yl)oxy)propan-1-amine]",inhibition at 1 µM,ATM enzyme (human); 0.5 h,99%
same,IC50,"[1]; Homo sapiens, SW-620, 120 h",434 nM
same,IC50,[2]; [3],25.1 nM
CN(C)CCCOc1ccc(-c2ccc3nc4cccc(CN5CCN(C)CC5)c4n3c2)cn1 [Example 11],inhibition(%) of ATM kinase,ATM enzyme (human),63%
same,IC50,[1],1040 nM
"CN(C)CCCOc1ccc(-c2ccc3nc4cccc(OC5CCOCC5)c4n3c2)cn1 [Example 13, N,N-dimethyl-3-((5-(9-((tetrahydro-2H-pyran-4-yl)oxy)benzo[4,5]imidazo[1,2-a]pyridin-2-yl)pyridin-2-yl)oxy)propan-1-amine]",inhibition at 1 µM,ATM enzyme (human); 0.5 h,86%
same,IC50,"[1]; Homo sapiens, SW-620, 120 h",1570 nM
"CN(C)CCCOc1ccc(-c2ccc3nc4cccc(NC5CCOCC5)c4n3c2)cn1 [Example 14, N,N-dimethyl-3-((5-(9-(tetrahydro-2H-pyran-4-ylamino)benzo[4,5]imidazo[1,2-a]pyridin-2-yl)pyridin-2-yl)oxy)propan-1-amine]",inhibition at 1 µM,ATM enzyme (human); 0.5 h,48%
same,IC50,"[1]; Homo sapiens, SW-620, 120 h",> 10000 nM
"CN(C)C1CCN(c2ccc(-c3ccc4nc5cccc(C6=CCOCC6)c5n4c3)cc2)CC1 [Example 39, N,N-dimethyl-1-(4-(9-(3,6-dihydro-2H-pyran-4-yl)benzo[4,5]imidazo[1,2-a]pyridin-2-yl)phenyl)piperidin-4-amine]",inhibition at 0.01 µM,"ATM enzyme (human); 0.5 h, detected concentration 0.01 μm",17%
same,inhibition at 0.1 µM,"ATM enzyme (human); 0.5 h, detected concentration 0.1 μm",62%
same,inhibition at 1 µM,ATM enzyme (human); 0.5 h,91%
same,IC50,"[1]; Homo sapiens, SW-620, 120 h",1510 nM
"CN(C)C1CCN(c2ccc(-c3ccc4nc5cccc(C6=CCOCC6)c5n4c3)cn2)CC1 [Example 40, N,N-dimethyl-1-(5-(9-(3,6-dihydro-2H-pyran-4-yl)benzo[4,5]imidazo[1,2-a]pyridin-2-yl)pyridin-2-yl)piperidin-4-amine]",inhibition at 1 µM,ATM enzyme (human); 0.5 h,96%
same,IC50,"[1]; Homo sapiens, SW-620, 120 h",2370 nM
"CN(C)C1CCN(c2ccc(-c3ccc4nc5cccc(N6CCOCC6)c5n4c3)cc2)CC1 [Example 41, N,N-dimethyl-1-(4-(9-morpholinobenzo[4,5]imidazo[1,2-a]pyridin-2-yl)phenyl)piperidin-4-amine]",inhibition at 1 µM,ATM enzyme (human); 0.5 h,82%
same,IC50,"[1]; Homo sapiens, SW-620, 120 h",3480 nM
"C[C@@H]1CN(c2cccc3nc4ccc(-c5ccc(OCCCN(C)C)c(F)c5)cn4c23)C[C@H](C)N1C [Example 50, N,N-dimethyl-3-(2-fluoro-4-(9-((3S,5R)-3,4,5-trimethylpiperazin-1-yl)benzo[4,5]imidazo[1,2-a]pyridin-2-yl)phenoxy)propan-1-amine]",IC50,"[1]; Homo sapiens, SW-620, 120 h",> 1000 nM
same,IC50,[2]; [3],> 1000 nM
"C[C@@H]1CN(c2cccc3nc4ccc(-c5ccc(OCCCN(C)C)c(C(F)(F)F)c5)cn4c23)C[C@H](C)N1C [Example 53, N,N-dimethyl-3-(2-(trifluoromethyl)-4-(9-((3S,5R)-3,4,5-trimethylpiperazin-1-yl)benzo[4,5]imidazo[1,2-a]pyridin-2-yl)phenoxy)propan-1-amine]",inhibition at 1 µM,ATM enzyme (human); 0.5 h,100%
same,IC50,"[1]; Homo sapiens, SW-620, 120 h",162 nM
"C[C@@H]1CN(c2ncnc3nc4ccc(-c5ccc(N6CCC(N(C)C)CC6)cc5)nn4c23)C[C@H](C)N1C [Example 71, N,N-dimethyl-1-(4-(4-((3 S,5R)-3,4,5-trimethylpiperazin-1-yl)pyridazino[6,1-f]purin-7-yl)phenyl)piperidin-4-amine]",IC50,"[1]; Homo sapiens, SW-620, 120 h",1240 nM
same,IC50,[2]; [3],1800 nM
"N,N-dimethyl-1-(2-(trifluoromethyl)-4-(942S,6R)-2,6-dimethylmorpholino)benzo[4,5]imidazo[1,2-a]pyridin-2-yl)phenyl)piperidin-4-amine [Example 54]",IC50,[1],193 nM
same,IC50,[2],220 nM
"N,N-dimethyl-3-(2-(trifluoromethyl)-4-(942S,6R)-2,6-dimethylmorpholino)benzo[4,5]imidazo[1,2-a]pyridin-2-yl)phenoxy)propan-1-amine [Example 55]",IC50,[1],228 nM
same,IC50,[2],255 nM

# Source: patent publication US11547703B2, “Substituted fused heteroaromatic tricyclic compounds as kinase inhibitors and the use thereof” (IMPACT THERAPEUTICS (SHANGHAI), INC, priority 2017, dated 2023)
